This passage reports Activity results from ChEMBL document CHEMBL1145319, “Modeling and synthesis of non-cyclic derivatives of GPI-1046 as potential FKBP ligands with neurotrophic properties” (Bioorg Med Chem Lett, 2006).

Assay [1] has as its target T1, Peptidyl-prolyl cis-trans isomerase FKBP4 (Homo sapiens) (UniProt Q02790).
T1 sequence (whole entry): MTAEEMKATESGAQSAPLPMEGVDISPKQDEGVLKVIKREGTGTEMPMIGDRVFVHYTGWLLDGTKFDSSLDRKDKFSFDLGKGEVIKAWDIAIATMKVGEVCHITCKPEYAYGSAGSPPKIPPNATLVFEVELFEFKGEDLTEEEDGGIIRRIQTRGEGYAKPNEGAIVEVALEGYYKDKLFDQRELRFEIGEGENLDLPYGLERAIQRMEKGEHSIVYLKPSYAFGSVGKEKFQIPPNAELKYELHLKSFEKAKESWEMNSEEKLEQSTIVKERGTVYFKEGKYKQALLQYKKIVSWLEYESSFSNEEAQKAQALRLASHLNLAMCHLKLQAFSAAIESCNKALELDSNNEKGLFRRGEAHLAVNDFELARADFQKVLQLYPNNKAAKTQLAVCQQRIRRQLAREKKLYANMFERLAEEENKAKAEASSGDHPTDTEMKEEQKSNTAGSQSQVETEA
The assay is described as follows: Neurotrophic activity in chick dorsal root ganglion at 1 pM in presence of NGF after 48 hrs relative to control. It counts as functional, tissue-based. To be noted: Gallus gallus, target entry is the homologue from another species.

Assay [2] deals with T1, Peptidyl-prolyl cis-trans isomerase FKBP4 (Homo sapiens). Kind of assay: Neurotrophic activity in chick dorsal root ganglion at 100 pM in presence of NGF after 48 hrs relative to control. It counts as functional, tissue-based. To be noted: Gallus gallus, target entry is the homologue from another species.

Turning to `CCC(C)(C)C(=O)C(=O)N[C@H](C(=O)OCCCc1cccnc1)C(C)C`, the Activity in assay [1] amounted to 100%; in assay [2], 120%.
Take `CCC(C)(C)C(=O)C(=O)N[C@H](C(=O)OCCc1ccccc1C(F)(F)F)C(C)C`: the Activity in assay [1] is 123%; in assay [2] it was 207%.
`CC(C)C[C@H](NC(=O)C(=O)C(C)(C)C)C(=O)OCCCc1cccnc1`: the Activity in assay [1] was 129%; in assay [2], 65%.
On to `CC(C)[C@H](NC(=O)C(=O)C(C)(C)C)C(=O)OCCCc1cccnc1`, for which the Activity in assay [1] turned out to be 115%; in assay [2] it was 136%.
For `CC(C)C[C@H](NC(=O)C(=O)C(C)(C)C)C(=O)OCCCOc1ccccc1`, the Activity was 108% in assay [1] and 93% in assay [2].
For `CC(C)[C@H](NC(=O)C(=O)C(C)(C)C)C(=O)OCCCC1CCCCC1`, in that order: 136% and 45%.
On to `CC(C)C[C@H](NC(=O)C(=O)C(C)(C)C)C(=O)OCCCc1ccccc1`, for which the values for the Activity in assay [1] and in assay [2] were 73% and 92%, respectively.
For `CC(C)[C@H](NC(=O)C(=O)C(C)(C)C)C(=O)OCCCOc1ccccc1`, in that order: 85% and 93%.
The like results for `CCC(C)(C)C(=O)C(=O)N[C@H](C(=O)OCCCc1ccccc1)C(C)C` were, in that order, 39% and 117%.
For `CC(C)[C@H](NC(=O)C(=O)C(C)(C)C)C(=O)OCCCc1ccccc1`, in that order: 65% and 78%.
In the case of `CCC(C)(C)C(=O)C(=O)N1CCC[C@H]1C(=O)OCCCc1cccnc1`, the Activity in assay [2] was 120%.
In the case of `CC(C)C[C@H](NC(=O)C(=O)C(C)(C)C)C(=O)OCCCC1CCCCC1`, the Activity is 123% in assay [1] and 101% in assay [2].
